Assay results reported in patent US20240368181A1, “QUINOXALINE DERIVATIVES AND USES THEREOF” (Black Diamond Therapeutics, Inc., priority 2021, published 2024).

How the values were obtained:
Type in all cases: cell-based
[1] = system: DMS-114 (FGFR1 overexpression) cells; assay: cell proliferation assay (CellTiterGlo), DMS-114 cells
Excerpt: (§1) In some embodiments, the biological assay assess the ability of the compounds to inhibit cell proliferation.
(§2) In some embodiments, cells (e.g., SNU-16 (FGFR2-amplification) cells) may be suspended and dispensed in plates. In some embodiments, cells (e.g., UM-UC-14 (FGFR3-S249C) cells) may be suspended and dispensed in plates. In some embodiments, cells (e.g., DMS-114 (FGFR1 overexpression) cells) may by suspended and dispensed in plates. In some embodiments, cells (e.g., RT-112 (FGFR3-Tacc3 fusion) cells) may be suspended and dispensed in plates. In some embodiments, to determine the effect of the compounds of the present disclosure on cell proliferation, cells (e.g., SNU-16, UM-UC-14, DMS-114 and […] cells) may be incubated in the presence of vehicle control (e.g., DMSO) or a compound of the present disclosure at varying concentrations and the inhibition of cell growth may be determined by luminescent quantification (e.g., of intracellular ATP content using CellTiterGlo), according to the manufacturers protocol. In some embodiments, to determine the IC50 values, the vehicle-treated cells were normalized as viable cells and the growth was analyzed using a software (e.g., the CDD Vault software (Collaborative Drug Discovery, Burlingame, CA)).

[2] = system: UM-UC-14 (FGFR3-S249C) cells; assay: cell proliferation assay (CellTiterGlo), UM-UC-14 cells
Excerpt: as §1, §2

[3] = system: RT-112 (FGFR3-Tacc3 fusion) cells; assay: cell proliferation assay (CellTiterGlo), RT-112 cells; details: 72 hours
Excerpt: as §1, §2

[4] = system: SNU-16 (FGFR2-amplification) cells; assay: cell proliferation assay (CellTiterGlo), SNU-16 cells; details: 72 hours
Excerpt: as §1, §2

[5] = Homo sapiens, RT-112, RT112 cells

Compound | IC50 ([1]; Homo sapiens, DMS-114, 72 h) | IC50 ([2]; UMUC14, 72 h) | IC50 [3, 5] | IC50 ([4]; Homo sapiens) | IC50 ([1]; 72 hours) | IC50 ([2]; 72 hours) | IC50 ([3]; RT112 cells) | IC50 [4]
Cc1nc2ccc(Oc3ccc4ncc(-c5cnn(CC(C)(O)C(F)(F)F)c5)nc4c3Cl)c(F)c2[nH]1 (stereo not shown) [Compound 122] | ≥ 400 nM | 20 to 100 nM | 20 to 100 nM | 20 to 100 nM |  |  |  | 
Cc1nc2ccc(Oc3ccc4ncc(-c5cnn([C@H]6CC7(C[C@@H](O)C7)C6)c5)nc4c3Cl)cc2[nH]1 (stereo partly shown) [Compound 123] |  | < 20 nM | 20 to 100 nM | 20 to 100 nM | 100 to 400 nM |  |  | 
Cc1nc2ccc(Oc3ccc4ncc(-c5cnn([C@H]6CC7(C[C@@H](O)C7)C6)c5)nc4c3Cl)cc2[nH]1 (stereo partly shown) [Compound 124] |  |  |  |  | ≥ 400 nM | 20 to 100 nM | 20 to 100 nM | 20 to 100 nM
Cc1nc2ccc(Oc3ccc4ncc(-c5cnn([C@H](C)CO)c5)nc4c3Cl)cc2[nH]1 [Compound 126] | 100 to 400 nM | 20 to 100 nM | 20 to 100 nM | 20 to 100 nM |  |  |  | 
Cc1nc2ccc(Oc3ccc4ncc(-c5cnn([C@H]6CC7(C[C@@H](O)C7)C6)c5)nc4c3Cl)c(F)c2[nH]1 (stereo partly shown) [Compound 127] | 100 to 400 nM | < 20 nM | < 20 nM | < 20 nM |  |  |  | 
Cc1nc2ccc(Oc3ccc4ncc(-c5cnn([C@H]6CC7(C[C@@H](O)C7)C6)c5)nc4c3Cl)c(F)c2[nH]1 (stereo partly shown) [Compound 128] |  |  |  |  | 100 to 400 nM | < 20 nM | < 20 nM | < 20 nM
Cc1nc2ccc(Oc3ccc4ncc(-c5cnn(C[C@@H](C)O)c5)nc4c3Cl)c(F)c2[nH]1 [Compound 130] | 100 to 400 nM | < 20 nM | < 20 nM | < 20 nM |  |  |  | 
Cc1nc2ccc(Oc3ccc4ncc(-c5cnn(CC(C)(C)O)c5)nc4c3Cl)c(F)c2[nH]1 [Compound 131] | 100 to 400 nM | < 20 nM | < 20 nM | < 20 nM |  |  |  | 
Cc1nc2ccc(Oc3ccc4ncc(-c5cnn(C6CCNC7(CC7)C6)c5)nc4c3Cl)c(F)c2[nH]1 (stereo not shown) [Compound 139] | 20 to 100 nM | 20 to 100 nM | < 20 nM | < 20 nM |  |  |  | 
Cc1nc2ccc(Oc3ccc4ncc(-c5cnn(CC6(O)CCC6)c5)nc4c3Cl)c(F)c2[nH]1 [Compound 140] | ≥ 400 nM | 20 to 100 nM | 20 to 100 nM | 20 to 100 nM |  |  |  | 
Cc1nc2ccc(Oc3ccc4ncc(-c5cnn(C(=O)OC(C)C)c5)nc4c3Cl)c(F)c2[nH]1 [Compound 141] | ≥ 400 nM | 100 to 400 nM | 100 to 400 nM | 20 to 100 nM |  |  |  | 
Cc1nc2ccc(Oc3ccc4ncc(-c5cnn([C@H]6C[C@H](O)C6)c5)nc4c3Cl)c(F)c2[nH]1 [Compound 143] | ≥ 400 nM | ≥ 400 nM | 100 to 400 nM | 100 to 400 nM |  |  |  | 
Cc1nc2ccc(Oc3ccc4ncc(-c5cnn(CC(O)C(F)(F)F)c5)nc4c3Cl)c(F)c2[nH]1 (stereo not shown) [Compound 144] | ≥ 400 nM | ≥ 400 nM | 100 to 400 nM | 20 to 100 nM |  |  |  | 
Cc1nc2ccc(Oc3ccc4ncc(-c5cnn(Cc6ncc7n6CCOC7)c5)nc4c3Cl)c(F)c2[nH]1 [Compound 145] | ≥ 400 nM | ≥ 400 nM | 100 to 400 nM | 20 to 100 nM |  |  |  | 
Cc1nc2ccc(Oc3ccc4ncc(-c5cnn(CC6(O)CCC6)c5)nc4c3Cl)cc2[nH]1 [Compound 146] | ≥ 400 nM | 20 to 100 nM | 20 to 100 nM | 20 to 100 nM |  |  |  | 
Cc1nc2ccc(Oc3ccc4ncc(-c5cnn(C(C)(C)C6CC(F)(F)C6)c5)nc4c3Cl)cc2[nH]1 [Compound 147] | ≥ 400 nM | 100 to 400 nM | 20 to 100 nM | 100 to 400 nM |  |  |  | 
Cc1nc2ccc(Oc3ccc4ncc(-c5cnn([C@H]6C[C@@H](O)C6)c5)nc4c3Cl)c(F)c2[nH]1 [Compound 148] | 20 to 100 nM | < 20 nM | < 20 nM | < 20 nM |  |  |  | 
Cc1nc2ccc(Oc3ccc4ncc(-c5cnn([C@H]6C[C@](C)(O)C6)c5)nc4c3Cl)c(F)c2[nH]1 [Compound 149] | 100 to 400 nM | < 20 nM | < 20 nM | < 20 nM |  |  |  | 
Cc1nc2ccc(Oc3ccc4ncc(-c5cnn(C(C)(C)C6CC(=O)C6)c5)nc4c3Cl)cc2[nH]1 [Compound 150] | ≥ 400 nM | 20 to 100 nM | 20 to 100 nM | 20 to 100 nM |  |  |  | 
Cc1nc2ccc(Oc3ccc4ncc(-c5cnn([C@H]6C[C@@](C)(O)C6)c5)nc4c3Cl)c(F)c2[nH]1 [Compound 151] | 20 to 100 nM | < 20 nM | < 20 nM | < 20 nM |  |  |  | 

Compound | IC50 ([1]; Homo sapiens, DMS-114, 72 h) | IC50 ([2]; UMUC14, 72 h) | IC50 [3, 5] | IC50 ([4]; Homo sapiens) | IC50 ([1]; 72 hours) | IC50 ([2]; 72 hours) | IC50 ([3]; RT112 cells) | IC50 [4]
Cc1nc2ccc(Oc3ccc4ncc(-c5cnn(CC6CCC(F)(F)CC6)c5)nc4c3Cl)c(F)c2[nH]1 [Compound 152] | 100 to 400 nM | 20 to 100 nM | 20 to 100 nM | 20 to 100 nM |  |  |  | 
Cc1nc2ccc(Oc3ccc4ncc(-c5cnn(C6CCC(F)(F)CC6)c5)nc4c3Cl)c(F)c2[nH]1 [Compound 153] | 100 to 400 nM | 20 to 100 nM | 20 to 100 nM | 20 to 100 nM |  |  |  | 
Cc1nc2ccc(Oc3ccc4ncc(-c5cnn(CC6CC(F)(F)C6)c5)nc4c3C3=CCOC3)cc2[nH]1 [Compound 179] | 100 to 400 nM | < 20 nM | < 20 nM | < 20 nM |  |  |  | 
Cc1nc2ccc(Oc3ccc4ncc(-c5cnn(C6CN(C(=O)N7CC(O)C7)C6)c5)nc4c3Cl)cc2[nH]1 [Compound 183] | ≥ 400 nM | 100 to 400 nM | 100 to 400 nM | 100 to 400 nM |  |  |  | 
Cc1nc2ccc(Oc3ccc4ncc(-c5cnn(C6CN(C(=O)N(C)C)C6)c5)nc4c3Cl)cc2[nH]1 [Compound 184] | ≥ 400 nM | 20 to 100 nM | 20 to 100 nM | 20 to 100 nM |  |  |  | 
Cc1nc2ccc(Oc3ccc4ncc(-c5cnn(C6CN(C(=O)N7CCC7)C6)c5)nc4c3Cl)cc2[nH]1 [Compound 185] | ≥ 400 nM | 20 to 100 nM | 20 to 100 nM | 20 to 100 nM |  |  |  | 
Cc1nc2ccc(Oc3ccc4ncc(-c5cnn(C6CCC(F)(F)CC6)c5)nc4c3Cl)cc2o1 [Compound 186] | ≥ 400 nM | ≥ 400 nM | ≥ 400 nM | ≥ 400 nM |  |  |  | 
Cc1nc2ccc(Oc3ccc4ncc(-c5cnn(C6CC7COCC(C6)N7)c5)nc4c3Cl)cc2[nH]1 (stereo not shown) [Compound 187] | ≥ 400 nM | 20 to 100 nM | 20 to 100 nM | 20 to 100 nM |  |  |  | 
Cc1nc2ccc(Oc3ccc4ncc(-c5cnn(CC(=O)N6CCOC(C)(C)C6)c5)nc4c3Cl)cc2[nH]1 [Compound 188] | ≥ 400 nM | 20 to 100 nM | 20 to 100 nM | 20 to 100 nM |  |  |  | 
Cc1nc2ccc(Oc3ccc4ncc(-c5cnn(C6CCN(C(=O)N7CC(O)C7)CC6)c5)nc4c3Cl)cc2[nH]1 [Compound 189] | ≥ 400 nM | 20 to 100 nM | 20 to 100 nM | 20 to 100 nM |  |  |  | 
Cc1nc2ccc(Oc3ccc4ncc(-c5cnn(C6CN(c7cccc(N(C)C)n7)C6)c5)nc4c3Cl)cc2[nH]1 [Compound 190] | ≥ 400 nM | ≥ 400 nM | ≥ 400 nM | ≥ 400 nM |  |  |  | 
Cc1nc2ccc(Oc3ccc4ncc(-c5cnn(C6CN(c7ccccn7)C6)c5)nc4c3Cl)cc2[nH]1 [Compound 191] | ≥ 400 nM | 100 to 400 nM | 100 to 400 nM | 100 to 400 nM |  |  |  | 
Cc1nc2ccc(Oc3ccc4ncc(-c5cnn(CC6CCNS(=O)(=O)C6)c5)nc4c3Cl)cc2[nH]1 (stereo not shown) [Compound 192] | ≥ 400 nM | 20 to 100 nM | 20 to 100 nM | 20 to 100 nM |  |  |  | 
Cc1nc2ccc(Oc3ccc4ncc(-c5cnn(CC(=O)N6C[C@@H](C)O[C@@H](C)C6)c5)nc4c3Cl)cc2[nH]1 [Compound 193] | ≥ 400 nM | 100 to 400 nM | 20 to 100 nM | 100 to 400 nM |  |  |  | 
Cc1nc2ccc(Oc3ccc4ncc(-c5cnn(C6CCN(c7ccccn7)CC6)c5)nc4c3Cl)cc2[nH]1 [Compound 194] | ≥ 400 nM | 100 to 400 nM | 100 to 400 nM | 100 to 400 nM |  |  |  | 
Cc1nc2ccc(Oc3ccc4ncc(-c5cnn(C(C)(C)C(=O)C6CC[C@H](F)C6)c5)nc4c3Cl)cc2[nH]1 (stereo partly shown) [Compound 195] | ≥ 400 nM | 20 to 100 nM | 20 to 100 nM | 20 to 100 nM |  |  |  | 
Cc1nc2ccc(Oc3ccc4ncc(-c5cnn(C6CN(c7cncc(F)c7)C6)c5)nc4c3Cl)cc2[nH]1 [Compound 196] | ≥ 400 nM | 100 to 400 nM | 100 to 400 nM | 100 to 400 nM |  |  |  | 
Cc1nc2ccc(Oc3ccc4ncc(-c5cnn(C6CCN(c7cncc(F)c7)CC6)c5)nc4c3Cl)cc2[nH]1 [Compound 197] | ≥ 400 nM | 100 to 400 nM | 20 to 100 nM | 100 to 400 nM |  |  |  | 
Cc1nc2ccc(Oc3ccc4ncc(-c5cnn(CCN6CC(O)C6)c5)nc4c3Cl)cc2[nH]1 [Compound 198] | ≥ 400 nM | 100 to 400 nM | 20 to 100 nM | 100 to 400 nM |  |  |  | 
C=C(F)/C=C/n1cc(-c2cnc3ccc(Oc4ccc5nc(C)[nH]c5c4)c(Cl)c3n2)cn1 [Compound 199] | ≥ 400 nM | 100 to 400 nM | 100 to 400 nM | 100 to 400 nM |  |  |  | 
